“Also recorded” adds a separate entry of the source.
Assays:
[1] = Excretion/elimination of BI 1356 at therapeutic oral dose levels; format: in vivo
[2] = Safety and tolerability in people with type 2 diabetes; format: in vivo

## CC#CCn1c(N2CCC[C@@H](N)C2)nc2c1c(=O)n(Cc1nc(C)c3ccccc3n1)c(=O)n2C [BI 1356, 1-[(4-methyl-quinazolin-2-yl)methyl]-3-methyl-7-(2-butyn-1-yl)-8-(3-(R)-amino-piperidin-1-yl)-xanthine]
[1]
  fraction excreted via the kidney: < 7 % of the administered oral dose
  main route of excretion: mainly excreted via the liver; also recorded: primarily excreted unchanged via the bile
[2]
  safety and tolerability: placebo-like safety and tolerability
